This note sets out measurements from US20230135127A1, “COMPOSITIONS AND METHODS FOR DISEASE TREATMENT AND PREVENTION BY PH MODIFIERS AND/OR CELL PROLIFERATION INHIBITORS” (priority 2021, published 2023).

Counter-ions that a name gives are not always drawn. Like-named read-outs stand apart in the source and are kept apart here.

For one series, the system named is Raji cells. Nature of the series: In vitro treatment of Raji tumor cells in FBS. Here is the method:
Jurkat and Raji tumor cell lines were maintained in Complete RPMI-1640 Medium (RPMI-1640 plus 1× GlutaMAX, 100 U/ml Pen-Strep (Gibco Life Technologies, Grand Island, N.Y., USA), and 5% heat-inactivated fetal bovine serum (FBS) (Atlanta Biologicals, Flowery Branch, Ga., USA)) at 37° C. and 5% CO2. The tumor cells were washed 3 times with saline plus 1% FBS before in vitro treatments with saline or saline plus pH modifiers.
(§1) For studies of the effects of pH modifier on proliferating cells, primary thymocytes or lymph node cells (4×10^6 cells/ml) were incubated in FBS comprising 10% of saline or 87.5 mM HCl, HOAc or NaOH prepared in saline in 37° C. water bath for 5 hours before analyses. The tumor cells (2×10^6 cells/ml) were incubated in FBS comprising 10% saline or 87.5 mM HCl, HOAc, or NaOH prepared in saline in 37° C. water bath for 3-5 hours.
Cells were washed 3 times with PBS then stained with Zombie viability dyes at room temperature for 20 minutes. At the end of incubation, 10% volume of FBS was added to absorb excess Zombie dyes. […] 7-AAD was added to the cells before analyzed by flow cytometry. […] Stained and unstained cells were analyzed on Accuri C6 Flow Cytomer (Accuri Cytometers, Inc., Ann Arbor, Mich.), FACS Canto (BD Bioscience, San Jose, Calif., USA) and Attune™ cytometer (Invitrogen, Carlsbad, Calif.). […]

Another series concerns thymocytes. The series can be described thus: Asthma model: thymus and thymocyte populations in vivo. More on the design: species or system mice. To be noted: for size of the thymus vs saline (gross examination): 3 days after final challenge and treatment; for percentage of Ki-67hi total thymocytes: saline 22.7%; for percentage of DP (CD4+CD8+) thymocyte subpopulation: saline 69.7%. As for the experimental part:
(§2) Cells were washed 3 times with PBS then stained with Zombie viability dyes at room temperature for 20 minutes. At the end of incubation, 10% volume of FBS was added to absorb excess Zombie dyes. After washes, the cells were stained with conjugated antibodies against surface antigens on ice. As specified in some experiments, the cells were subsequently stained with fluorochrome-conjugated Avidin. For Annexin V staining, cells were washed twice with plain PBS and once with Annexin V binging buffer (10 mM HEPES, pH7.4, 140 mM NaCl, 2.5 mM CaCl2)) after surface antigen staining, and incubated with fluorochrome-conjugated Annexin V in Annexin V binding buffer for 15 min at room temperature. The cells were washed twice in Annexin V binding buffer and resuspended in Annexin V binding buffer. 7-AAD was added to the cells before analyzed by flow cytometry. For Ki-67 and Foxp3 staining, lymphocytes (after Zombie dye and surface antigen staining) or tumor cells (without surface antigen staining) were fixed and permeabilized using Foxp3 staining buffer kit, then stained with PE-conjugated anti-mouse or human Ki-67 antibodies. (Biolegend, San Diego, Calif., USA). Stained and unstained cells were analyzed on Accuri C6 Flow Cytomer (Accuri Cytometers, Inc., Ann Arbor, Mich.), FACS Canto (BD Bioscience, San Jose, Calif., USA) and Attune™ cytometer (Invitrogen, Carlsbad, Calif.). Data analyses were carried out using FlowJo X.
In the asthma model, OVA sensitized mice were challenged with OVA by i.t. injection every other day for 3 times. The mice received i.t. treatment with saline, HCl or HOAc at the same time as challenge, or i.p. treatment with NaOH 1 hour after the challenge. Thymuses were harvested 3 days after the final challenge and treatment. […] (FIG. 20a). […] The thymocytes can be divided into Ki-67 high, low and negative populations. (FIG. 20b).

In series [1] the test system is CD4 T cells in BALF and MLN. The note with it: for Treg cells, % of total CD4 T cells, BALF: saline 7.46%; for Treg cells, % of total CD4 T cells, MLN: saline 11.80%. Here is the method:
(92, 93). […] For challenge, 2× concentrated solution was prepared by mixing 100 μg OVA protein and 1 μg […] peptide (Molecular Resources, Fort Collins, Colo., USA) in 30 μl saline per mouse, and kept on ice. Immediately before i.t. (intratracheal) injection the 30 μl 2×OVA solution was mixed with equal volume of 2× treatment solution (350 mM HOAc or HCl in saline) and instilled into the trachea of the mouse. The mice were challenged every other day for a total of 3 times.
The total mixture (60 μl) was instilled into the trachea of the mouse. The mice were treated every other day for a total of 3 times.
as §2

For a further series, the system named is primary thymocytes. Nature of the series: In vitro treatment of thymocytes in FBS, Ki-67. The note with it: FBS with saline plus modifier, vs saline cultures. It is filed as cell-based, mouse.
A further series relates to primary lymph node cells. Nature of the series: In vitro treatment of primary lymph node cells in FBS, Ki-67. It is filed as cell-based, mouse. To be noted: 8.75 mM in FBS, 37° C., 5 hours. As for the experimental part:
as §1, §2
Thus, to assess the full potentials of the pH modifiers, in vitro experiments were carried out, in which primary lymph node cells were treated with saline or saline plus the pH modifiers in 100% FBS in 37° C. water bath. Such in vitro culture systems were designed to be free of interference by pH buffering agents in common tissue culture system. The final concentration of the pH modifiers in the in vitro cultures was set to be 8.75 mM.

For series [2], the system named is white bone marrow (WBM) cells. The note with it: for Ki-67hi cells in bone marrow B lineage (CD19+) cells: i.p. x3, 1 day after third treatment, saline 5.59%; for Ki-67hi cells in non-B lineage cells of non-granulocyte WBM cells: i.p. x3, saline 11.5%. As for the experimental part:
For all examples, treatments of the mice were carried out either by i.t. (intra-tracheal) instillation or i.p. injection. For i.t. instillation, 60 μl of treatment solution of saline or saline plus 175 mM HCl or HOAc was instilled into the trachea of a mouse using a pipet tip. For i.p. injection, 200 μl of saline or saline plus 87.5 mM HCl, HOAc or NaOH was injected into the peritoneal cavity of a mouse using a 26 or 27G needle. At the time of the first treatment the body weights of the mice ranged about 19 to 30 g.
as §2
Like lymph nodes, bone marrow is one of the most common sites for tumor metastasis. (106). In addition, primary tumors or tumor-like lesions can also occur in the bone. (107). […] In this example, C57BL/6 mice were treated with i.p. injection of saline, or saline plus HCl or HOAc every other day for 3 times. Bone marrow cells were extracted from both tibias 1 day after the third treatment for the study of B lineage cells, and for the studies of other cell types 3 days after the third i.p. treatment with saline or saline plus HOAc, and alternatively, mice received one i.t. injection of saline or saline plus HOAc, bone marrow was extracted from tibias the next day.

In series [3] the test system is proliferating cells in the intestinal villi. Nature of the series: Ki-67 immunohistochemistry of intestines. The note with it: i.p. x3, one day after third dose. It is filed as in vivo, mice. Here is the method: (97). Briefly, the tissue sections were first deparaffinized and rehydrated.
Mice were i.p. treated with saline or saline plus HCl, HOAc or NaOH every other day for a total of 3 doses. One day after the third dose, mice were sacrificed, and tissue sections of the intestines were analyzed by immunohistochemistry staining of Ki-67 with hematoxylin counter staining.

`Cl` [HCl, hydrochloric acid]: the “viability (live cells) of Raji cells” value with Raji cells (FBS with 10% of 87.5 mM modifier, 37° C., 3-5 hours, saline 89.4%) came out at 49.2%. Also, the “size of the thymus vs saline (gross examination)” value (“size of the thymus vs saline” for short) in the series with thymocytes is “dramatically smaller”. In series [1] (BALF), the “Treg cells, % of total CD4 T cells, BALF” value turned out to be 4.45%. In series [1], the “Treg cells, % of total CD4 T cells, MLN” value is reported as 9.12%. The “Ki-67+ cells in thymocytes after in vitro treatment” value (“Ki-67+ cells in thymocytes” for short) in the series on primary thymocytes is on record as “almost no Ki-67^+ cells”. Moreover, in the series with primary lymph node cells, the “Ki-67+ cells in live total lymphocytes, CD4, CD8 T cells and B cells” value is listed as “almost eliminated all Ki-67^+”. Besides, in series [2], the “Ki-67hi cells in bone marrow B lineage (CD19+) cells” value is 2.83% and the “Ki-67hi cells in non-B lineage cells of non-granulocyte WBM cells” value was 6.34%. In series [3], the “Ki-67+ cells in the intestinal villi (IHC)” value (“Ki-67+ cells … (IHC)” for short) is “more Ki-67^+ cells in the intestinal villi of saline- or NaOH-treated mice than the HCl- or HOAc-treated mice” and the “Ki-67 staining intensity in intestines” value is on record as “stronger than those of the HCl- or HOAc-treated mice”.
As to `CC(=O)O` [HOAc, acetic acid], the “viability (live cells) of Raji cells” value with Raji cells (human, 8.75 mM) is on record as 48.9%. In the series on thymocytes, the “size of the thymus vs saline” value is given as “dramatically smaller”, the “percentage of Ki-67hi total thymocytes” value was 15.4% and the “percentage of DP (CD4+CD8+) thymocyte subpopulation” value is 43.8%. Also, the “decrease of total numbers of thymocytes vs saline” value with thymocytes (i.t. HOAc) is about 90%. Moreover, the “Treg cells, % of total CD4 T cells, BALF” value in series [1] (BALF) was 7.18%. The “Treg cells, % of total CD4 T cells, MLN” value in series [1] was determined as 11.53%. Moreover, in the series on primary thymocytes, the “Ki-67+ cells in thymocytes” value was “almost no Ki-67^+ cells”. Further, the “Ki-67+ cells in live total lymphocytes, CD4, CD8 T cells and B cells” value with primary lymph node cells is “almost eliminated all Ki-67^+”. Also, in series [2] (i.p. treated, saline 4.21%), the “Ki-67hi cells in bone marrow T (CD3+) cells” value came out at 2.46%. Moreover, the “Ki-67hi HSC” value in series [2] (i.p. treated, saline 11.1%) is given as “no Ki-67^hi HSC were detected”. The “Ki-67hi cells in erythroid (TER-119+) lineage cells” value in series [2] (i.p. treated, saline 72.3%) stood at 46.9%. In series [2], the “Ki-67hi cells in bone marrow B lineage (CD19+) cells” value came to 3.3% and the “Ki-67hi cells in non-B lineage cells of non-granulocyte WBM cells” value came to 5.11%. The “Ki-67hi cells in bone marrow T (CD3+) cells” value in series [2] (i.t. treated, one injection, saline 4.88%) is listed as 2.44%. Moreover, in series [2] (i.t. treated, saline 5.56%), the “Ki-67hi HSC” value is on record as “no Ki-67^hi HSC were detected”. Moreover, the “Ki-67hi cells in erythroid (TER-119+) lineage cells” value in series [2] (i.t. treated, saline 67.3%) amounted to 33.3%. In series [3], the “Ki-67+ cells … (IHC)” value is “more Ki-67^+ cells in the intestinal villi of saline- or NaOH-treated mice than the HCl- or HOAc-treated mice” and the “Ki-67 staining intensity in intestines” value is listed as “stronger than those of the HCl- or HOAc-treated mice”.
In the case of `[Na+].[OH-]` [NaOH, sodium hydroxide], in the series with thymocytes, the “size of the thymus vs saline” value was “similar”, the “percentage of Ki-67hi total thymocytes” value turned out to be 31.7% and the “percentage of DP (CD4+CD8+) thymocyte subpopulation” value is on record as 77.6%. In addition, the “increase of total numbers of thymocytes vs saline” value in the series with thymocytes (i.p. NaOH) is reported as “about 28%”. Moreover, in series [1] (BALF), the “CD44+ cells in Foxp3- CD4 T cells, BALF” value amounted to 80.6% and the “Treg cells, % of total CD4 T cells, BALF” value is reported as 6.97%. For the same compound, the “Treg cells, % of total CD4 T cells, MLN” value in series [1] worked out at 11.46%. Besides, in the series on primary thymocytes, the “Ki-67+ cells in thymocytes” value is reported as “higher percentages of Ki-67^+ cells”. In addition, in the series on primary lymph node cells, the “percentages of Ki-67+ cells in CD4 T cells and B cells vs saline” value is “nearly tripled”; the “percentages of Ki-67+ cells in total lymphocytes and CD8 T cells vs saline” value was “more than tripled”. In series [3], the “Ki-67+ cells … (IHC)” value was “more Ki-67^+ cells in the intestinal villi of saline- or NaOH-treated mice than the HCl- or HOAc-treated mice” and the “Ki-67 staining intensity in intestines” value was “strongest”.
